Data taken from US5061791A, “4-bromo-4'-demethylepipodophyllotoxin derivatives” (Warner-Lambert Company, priority 1989, dated 1991).
Where two headings read alike, the source gives them in different places.

Key:
[1] = background art; cited from earlier work
[2] = system: tumors, including small-cell carcinoma of the lung, acute leukemia, malignant lymphoma, and testicular cancer; details: background art; cited from earlier work
[3] = system: P388 murine leukemia cell line; test: In vivo antineoplastic test, P388 leukemia in mice; design: species or system murine (male and female CD2Fl mice)
Procedure: (§1) Compounds of the present invention are tested for antineoplastic activity by the following in vitro L1210 and in vivo P388 leukemia protocols:
In Vivo Antineoplastic Test Protocol
The activities of compounds of the present invention are tested against the P388 murine leukemia cell line in vivo. This protocol tests the effectiveness of a given compounds to inhibit the growth of the transplanted P388 murine leukemia cell line in male and female CD2Fl mice. Each test included a group of six or seven mice. The test is described in detail in Cancer Chemotherapy Reports, Part 3, Volume 3, pp 1-85 (1972).
The tumor cell line is transplanted into the test animals by intraperitoneal injection of ascites fluid containing the cell line. […]
A compound is designated "toxic" if, at a given dose, no animal survives after four days following first injection of the test compound. A ratio of survival time for treated animals (T) animals relative to control (C) animals is calculated for each nontoxic dose. A criterion for efficacy is a ratio of (T/C)×100 equal to or greater than 125.

[4] = system: L1210 murine leukemia cell line; test: In vitro antineoplastic test, L1210 leukemia (MTT, 3 days); format: cell-based; details: Mus musculus, read-out: L1210 Leukemia In Vitro Mean IC50
Procedure: as §1
In Vitro Antineoplastic Test Protocol
The activities of compounds of the present invention are tested against the L1210 murine leukemia cell line in vitro.
[…] cells are grown in RPMI 1640 culture medium containing 10% fetal bovine serum and gentamicin (50 micrograms per milliliter). A stock solution of the test compound is prepared in the appropriate solvent and further diluted in culture medium. Sequential twofold dilutions of drug are performed with 50 microliter transfers in 96-well microliter plates followed by the addition of 50 microliters of cell suspension containing 4×10^4 cells per milliliter.
After incubation at 37° C. in a humidified atmosphere of 5% CO2 in air for three days, 10 microliters of MTT [5 milligrams/milliliter 3-(4,5-dimethyl-2-thiazol)-2,5-diphenyltetrazolium bromide]are added to each well and the plates incubated at 37° C. for 3 hours before the addition of 100 microliters of 0.15 N HCl in isopropanol. Absorbance is read within one hour on a Dynatech MR 600 plate reader at 2 test wavelength of 570 nm and a reference wavelength of 630 nm. A microcomputer program converts optical density readings to percent growth and determines IC50 values (the amount of drug required to reduce absorbance to 50% of untreated controls) using nonlinear regression analysis.

[5] = Mus musculus, P388, ip, 120 h, read-out: P388 Leukemia % T/C (survival time treated/control x 100)

## COc1cc([C@@H]2c3cc4c(cc3[C@@H](O[C@@H]3O[C@@H]5CO[C@@H](C)O[C@H]5[C@H](O)[C@H]3O)[C@H]3COC(=O)[C@H]23)OCO4)cc(OC)c1O [Etoposide, etoposide, reference compound]
[1]
  toxicity (in words): reduced toxicity
[2]
  antineoplastic activity (in words): exhibited antineoplastic activity against certain tumors, including small-cell carcinoma of the lung, acute leukemia, malignant lymphoma, and testicular cancer
[3]; Mus musculus, P388, read-out: P388 Leukemia % T/C (survival time treated/control x 100)
  response vs control in vivo at 40 mg/kg: 295%
[3]; P388, 40 mg/kg/inj, once daily on Days 1, 5, and 9
  60-days survivors: 4/10

## COc1cc([C@@H]2c3cc4c(cc3[C@@H](OCCN(C)CCO)[C@H]3COC(=O)[C@H]23)OCO4)cc(OC)c1O [Example 2]
[3]; [5]
  response vs control in vivo at 0.38 mg/kg: 170%
[4]; L1210, 72 h
  IC50: 0.103 µM

## COc1cc([C@@H]2c3cc4c(cc3[C@@H](OCCN3CCOCC3)[C@H]3COC(=O)[C@H]23)OCO4)cc(OC)c1O [Example 3, [5R-(5α,5aβ,8aα,9β)]-5,8,8a,9-tetrahydro-5-(4-hydroxy-3,5-dimethoxyphenyl)-9-[2-(4morpholinyl)ethoxy]furo[3',4':6,7]naphtho[2,3-d]-1,3-dioxol-6(5aH)-one]
[3]; [5]
  response vs control in vivo at 3.1 mg/kg: 179%
[4]; L1210, 72 h
  IC50: 0.235 µM

## COc1cc([C@@H]2c3cc4c(cc3[C@@H](OCCN(CCO)CCO)[C@H]3COC(=O)[C@H]23)OCO4)cc(OC)c1O [Example 4]
[3]; [5]
  response vs control in vivo at 1.5 mg/kg: 160%
[4]; L1210, 72 h
  IC50: 0.336 µM

## CCN(CC)CCO[C@@H]1c2cc3c(cc2[C@@H](c2cc(OC)c(O)c(OC)c2)[C@H]2C(=O)OC[C@@H]21)OCO3 [Example 5, [5R-(5α,5aβ,8aα,9β)]-9-[2-(diethylamino)ethoxy]-5,8,8a,9-tetrahydro-5-(4-hydroxy-3,5-dimethoxyphenyl)furo[3',4':6,7]naphtho[2,3-d]-1,3-dioxol-6(5aH)-one]
[3]; [5]
  response vs control in vivo at 3.1 mg/kg: 140%
[4]; L1210, 72 h
  IC50: 0.198 µM

## CCN(CC)CCCO[C@@H]1c2cc3c(cc2[C@@H](c2cc(OC)c(O)c(OC)c2)[C@H]2C(=O)OC[C@@H]21)OCO3 [Example 6, [5R-(5α,5aβ,8aα,9β)]-9-3-[(diethylamino)propoxy]-5,8,8a,9-tetrahydro-5-(4-hydroxy-3,5-dimethoxyphenyl)furo[3',4':6,7]naphtho[2,3-d]-1,3-dioxol-6(5aH)-one]
[3]; [5]
  response vs control in vivo at 2 mg/kg: 137%
[4]; L1210, 72 h
  IC50: 0.25 µM

## CCN(CC)CCOCCO[C@@H]1c2cc3c(cc2[C@@H](c2cc(OC)c(O)c(OC)c2)[C@H]2C(=O)OC[C@@H]21)OCO3 [Example 7, [5R-(5α,5aβ,8aα,9β)]-9-[2-[2-(diethyl-amino)ethoxy]ethoxy]-5,8,8a,9-tetrahydro-5-(4-hydroxy-3,5-dimethoxyphenyl)furo[3',4':6,7]naphtho[2,3-d]-1,3-dioxol-6(5aH)-one]
[3]; [5]
  response vs control in vivo at 50 mg/kg: 170%
[4]; L1210, 72 h
  IC50: 0.253 µM

## COc1cc([C@@H]2c3cc4c(cc3[C@@H](OCCN3CCCC3=O)[C@H]3COC(=O)[C@H]23)OCO4)cc(OC)c1O [Example 8, [5S-(5α,5aβ,8aα,9β)]-1-[2-[[5,5a,6,8,8a,9-hexahydro-9-(4-hydroxy-3,5-dimethoxyphenyl)-8-oxofuro-[3',4':6,7]naphtho[2,3-d]-1,3-dioxol-5-yl]oxy]ethyl]-2-pyrrolidinone]
[3]; [5]
  response vs control in vivo at 100 mg/kg: 167%
[4]; L1210, 72 h
  IC50: 0.5 µM

## COc1cc([C@@H]2c3cc4c(cc3[C@@H](SCCN3CCOCC3)[C@H]3COC(=O)[C@H]23)OCO4)cc(OC)c1O [Example 9, [5R-(5α,5aβ,8aα,9β)]-5,8,8a,9-tetrahydro-5-(4-hydroxy-3,5-methoxyphenyl)-9-[[2-(4-morpholinyl)ethyl]thio]furo[3',4':6,7]naphtho[2,3-d]1,3-dioxol-6(5aH)-one]
[3]; [5]
  response vs control in vivo at 50 mg/kg: 127%
[4]; L1210, 72 h
  IC50: 1.39 µM

## COc1cc([C@@H]2c3cc4c(cc3[C@@H](SCC(O)CO)[C@H]3COC(=O)[C@H]23)OCO4)cc(OC)c1O (stereo partly drawn) [Example 10]
[3]; [5]
  response vs control in vivo at 12.5 mg/kg: 114%
[4]; 72 h, L1210 cells, 3 days at 37° C., MTT
  IC50: 0.767 µM

## COc1cc([C@@H]2c3cc4c(cc3[C@@H](S[C@@H]3O[C@@H]5COC(C)O[C@H]5[C@H](O)[C@H]3O)[C@H]3COC(=O)[C@H]23)OCO4)cc(OC)c1O (stereo partly drawn) [Example 11, (5α,5aα,8aα,9β)-9-[(4,6-O-ethylidene-β-D-glucopyranosyl)thio]-5,8,8a,9-tetrahydro-5-(4-hydroxy-3,5-dimethoxyphenyl)furo[3',4':6,7]naphtho[2,3-d]-1,3-dioxol-6(5aH)-one]
[3]; [5]
  response vs control in vivo at 50 mg/kg: 182%
[3]; P388, 50 mg/kg/inj, intraperitoneal once daily for five days
  40-day survivors: 3/6
[3]; conclusion from the table (L1210 and P388)
  antitumor activity (in words): highly active
[4]; L1210, 72 h
  IC50: 0.305 µM

## COc1cc([C@@H]2c3cc4c(cc3[C@H](O)[C@H]3COC(=O)[C@H]23)OCO4)cc(OC)c1OC [podophyllotoxin]
[1]
  toxicity (in words): extremely toxic
[2]
  antineoplastic activity (in words): well documented

## COc1cc([C@@H]2c3cc4c(cc3[C@@H](O[C@@H]3O[C@@H]5CO[C@@H](c6cccs6)O[C@H]5[C@H](O)[C@H]3O)[C@H]3COC(=O)[C@H]23)OCO4)cc(OC)c1O [teniposide]
[1]
  toxicity (in words): reduced toxicity
[2]
  antineoplastic activity (in words): exhibited antineoplastic activity against certain tumors, including small-cell carcinoma of the lung, acute leukemia, malignant lymphoma, and testicular cancer
